Patent US10087188B2, “Benzamide imidazopyrazine Btk inhibitors” (MERCK SHARP & DOHME CORP., priority 2014, dated 2018)
Read-outs that look alike come from different tables or passages of the source.

Legend:
[1] = tested on: HeLa cells; experiment: [3H] Adenosine uptake assay; assay type: cell-based; conditions: accumulation of tritiated adenosine into HeLa cells, compound concentration range 10 μM to 0.032 nM, read-out: ADU inhibition IC50 (adenosine uptake inhibition potency)
In short: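 Accumulation of tritiated adenosine in adherent HeLa cells, detected by scintillant-plate coincidence counting, gives IC50 via 4-parameter robust fit. Compound (constant 0.25% DMSO) applied 30 min ahead, then 60 min radiolabel exposure (added from 500 nM solution), ambient conditions, HBSS with 5% FBS.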

[2] = molecular target: BTK enzyme (recombinant full-length BTK, hBTK) (Homo sapiens (Human), UniProt Q06187); experiment: Btk enzyme activity assay, LANCE TR-FRET; assay type: biochemical; conditions: 50 pM hBTK, 2 μM biotin-A5-peptide, 25 μM ATP; 60 minute compound & enzyme incubation; read-out: BTK binding IC50
Sequence of BTK enzyme (recombinant full-length BTK, hBTK) (Q06187 whole entry): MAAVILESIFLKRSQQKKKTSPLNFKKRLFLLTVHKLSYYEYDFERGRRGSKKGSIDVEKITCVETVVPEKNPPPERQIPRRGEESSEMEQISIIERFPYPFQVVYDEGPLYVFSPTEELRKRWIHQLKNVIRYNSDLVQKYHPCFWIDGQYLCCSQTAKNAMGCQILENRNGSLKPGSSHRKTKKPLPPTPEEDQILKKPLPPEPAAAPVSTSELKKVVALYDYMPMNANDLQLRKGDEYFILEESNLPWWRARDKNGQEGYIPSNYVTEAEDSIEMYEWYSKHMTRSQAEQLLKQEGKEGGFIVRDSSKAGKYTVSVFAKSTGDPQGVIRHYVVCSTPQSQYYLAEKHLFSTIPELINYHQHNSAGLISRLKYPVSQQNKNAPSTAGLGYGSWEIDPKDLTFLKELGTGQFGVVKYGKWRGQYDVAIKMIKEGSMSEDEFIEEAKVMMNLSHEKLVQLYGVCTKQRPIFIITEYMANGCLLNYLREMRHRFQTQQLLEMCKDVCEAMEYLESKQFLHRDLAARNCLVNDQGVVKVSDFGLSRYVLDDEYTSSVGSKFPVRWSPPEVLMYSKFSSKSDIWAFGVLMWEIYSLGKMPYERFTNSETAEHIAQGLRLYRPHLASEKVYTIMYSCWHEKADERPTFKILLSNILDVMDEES
Description: Btk Enzyme Activity Assay Methods
BTK enzymatic activity was determined with the LANCE (Lanthanide Chelate Excite) TR-FRET (Time-resolved fluorescence resonance energy transfer) assay. […] After 60 minutes incubation with detection reagents, reaction plates were read on a PerkinElmer EnVision plate reader using standard TR-FRET protocol.

`CC1(C(=O)O)CCC(C)(c2nc(-c3ccc(C(=O)Nc4cc(C(F)(F)F)ccn4)cc3F)c3c(N)nccn23)CC1` (stereo not drawn) [Example 134, 4-[8-amino-1-(2-fluoro-4-{[4-(trifluoromethyl)pyridin-2-yl]carbamoyl}phenyl)imidazo[1,5-a]pyrazin-3-yl]-1,4-dimethylcyclohexane-carboxylic acid] was tested, and the IC50 ([1]; Homo sapiens, HeLa) was 2770 nM and the IC50 [2] was 0.5 nM.
For `COc1cc(C(=O)Nc2cc(C(F)(F)F)ccn2)cc(F)c1-c1nc(C23CCC(C(=O)O)(CC2)CC3)n2ccnc(N)c12` [Example 108, 4-[8-amino-1-(2-fluoro-6-methoxy-4-{[4-(trifluoromethyl)pyridin-2-yl]carbamoyl}phenyl)imidazo[1,5-a]pyrazin-3-yl]bicyclo[2.2.2] octane-1-carboxylic acid], the IC50 ([1]; Homo sapiens, HeLa) was 6690 nM and the IC50 [2] was 0.73 nM.
Work on `CCOc1cc(C(=O)Nc2cc(C3CC3)ccn2)cc(F)c1-c1nc([C@@]2(C)CC[C@](C)(C(=O)O)C2)n2ccnc(N)c12` [Example 123, (1S,3S)-3-(8-amino-1-{4-[(4-cyclopropylpyridin-2-yl)carbamoyl]-2-ethoxy-6-fluorophenyl}imidazo [1,5-a]pyrazin-3-yl)-1,3-dimethylcyclopentane carboxylic acid] yielded an IC50 ([1]; Homo sapiens, HeLa) of 10000 nM and an IC50 [2] of 0.57 nM.
Work on `Nc1nccn2c([C@H]3CC[C@H](CC(=O)O)C3)nc(-c3ccc(C(=O)Nc4cc(C(F)(F)F)ccn4)cc3)c12` [Example 51, {(1S,3S)-3-[8-amino-1-(4-{[4-(trifluoromethyl)pyridin-2-yl]carbamoyl}phenyl)imidazo[1,5-a]pyrazin-3-yl]cyclopentyl}acetic acid] yielded an IC50 ([1]; Homo sapiens, HeLa) of 4000 nM and an IC50 [2] of 0.29 nM.
`CC(C)[C@@]1(C(=O)O)CC[C@H](N2C[C@H](c3nc(-c4ccc(C(=O)Nc5cc(C(F)(F)F)ccn5)cc4F)c4c(N)ncc(Cl)n34)OC[C@@H]2C)C1` [Example 203, (1R,3S)-3-{(2R,5S)-2-[8-amino-5-chloro-1-(2-fluoro-4-{[4-(trifluoromethyl)pyridin-2-yl]carbamoyl}phenyl)imidazo [1,5-a]pyrazin-3-yl]-5-methylmorpholin-4-yl}-1-(1-methylethyl) cyclopentanecarboxylic acid] gave an IC50 ([1]; Homo sapiens, HeLa) of 891 nM and an IC50 [2] of 1.9 nM.
In the case of `COc1cc(C(=O)Nc2cc(C(F)(F)F)ccn2)ccc1-c1nc([C@H]2CN(C(=O)C34CC(C(=O)O)(C3)C4)[C@@H](C)CO2)n2ccnc(N)c12` [Example 177, 3-({(2R,5S)-2-[8-amino-1-(2-methoxy-4-{[4-(trifluoromethyl)pyridin-2-yl]carbamoyl}phenyl)imidazo [1,5-a]pyrazin-3-yl]-5-methylmorpholin-4-yl}carbonyl)bicyclo[1.1.1] pentane-1-carboxylic acid], the IC50 ([1]; Homo sapiens, HeLa) is reported as 10000 nM and the IC50 [2] is reported as 0.76 nM.
`C[C@@]1(C(=O)O)CCC[C@H](c2nc(-c3ccc(C(=O)Nc4cc(C5CC5)ccn4)cc3F)c3c(N)nccn23)C1` [Example 160, (1R,3S)-3-(8-amino-1-{4-[(4-cyclopropylpyridin-2-yl)carbamoyl]-2-fluorophenyl}imidazo [1,5-a]pyrazin-3-yl)-1-methylcyclohexane-carboxylic acid] gave an IC50 ([1]; Homo sapiens, HeLa) of 4510 nM and an IC50 [2] of 0.96 nM.
`CC(C)C1(C(=O)O)CCC(C)(c2nc(-c3ccc(C(=O)Nc4cc(C(F)(F)F)ccn4)cc3)c3c(N)nccn23)C1` (stereo not drawn) [Example 144, 3-[8-amino-1-(4-{[4-(trifluoromethyl)pyridin-2-yl]carbamoyl}phenyl)imidazo[1,5-a]pyrazin-3-yl]-3-methyl-1-(1-methylethyl) cyclopentane-carboxylic acid] gave an IC50 [1] of 3010 nM and an IC50 [2] of 2.5 nM.
For `CCOc1cc(C(=O)Nc2cc(C(F)(F)F)ccn2)ccc1-c1nc([C@@H]2CC[C@](C(=O)O)(C(C)C)C2)n2ccnc(N)c12` [Example 61, (1R,3R)-3-[8-amino-1-(2-ethoxy-4-{[4-(trifluoromethyl)pyridin-2-yl]carbamoyl}phenyl)imidazo[1,5-a]pyrazin-3-yl]-1-(1-methylethyl) cyclopentane-carboxylic acid], the IC50 ([1]; Homo sapiens, HeLa) was 10000 nM and the IC50 [2] was 2.4 nM.
In the case of `CCOc1cc(C(=O)Nc2cc(C(F)(F)F)ccn2)ccc1-c1nc([C@H]2CN(C3CCC(C)(C(=O)O)CC3)[C@@H](C)CO2)n2c(Cl)cnc(N)c12` (stereo partly drawn) [Example 189, 4-{(2R,5S)-2-[8-amino-5-chloro-1-(2-ethoxy-4-{[4-(trifluoromethyl)pyridin-2-yl]carbamoyl}phenyl)imidazo [1,5-a]pyrazin-3-yl]-5-methylmorpholin-4-yl}-1-methylcyclohexanecarboxylic acid], the IC50 ([1]; Homo sapiens, HeLa) is reported as 4840 nM and the IC50 [2] is reported as 1.9 nM.
`C[C@H]1CO[C@@H](c2nc(-c3ccc(C(=O)Nc4cc(C(F)(F)F)ccn4)cc3F)c3c(N)nccn23)CN1[C@H]1CC[C@](C)(C(=O)O)CC1` [Example 193, trans-4-{(2R,5S)-2-[8-amino-1-(2-fluoro-4-{[4-(trifluoromethyl)pyridin-2-yl]carbamoyl}phenyl)imidazo [1,5-a]pyrazin-3-yl]-5-methylmorpholin-4-yl}-1-methylcyclohexanecarboxylic acid] was tested, and the IC50 ([1]; Homo sapiens, HeLa) was 2840 nM and the IC50 [2] was 0.56 nM.
Compound `CC(C)(C(=O)O)N1CCO[C@@H](c2nc(-c3ccc(C(=O)Nc4cc(C(F)(F)F)ccn4)cc3)c3c(N)nccn23)C1` [Example 183, 2-{(2R)-2-[8-amino-1-(4-{[4-(trifluoromethyl)pyridin-2-yl]carbamoyl}phenyl)imidazo [1,5-a]pyrazin-3-yl]morpholin-4-yl}-2-methylpropanoic acid] has an IC50 ([1]; Homo sapiens, HeLa) of 665 nM and an IC50 [2] of 13.2 nM.
With `Nc1nccn2c([C@H]3CN(C4CC(C(=O)O)C4)CCO3)nc(-c3ccc(C(=O)Nc4cc(C(F)(F)F)ccn4)cc3)c12` (stereo partly drawn) [Example 179, 3-{(2R)-2-[8-amino-1-(4-{[4-(trifluoromethyl)pyridin-2-yl]carbamoyl}phenyl)imidazo [1,5-a]pyrazin-3-yl]morpholin-4-yl}cyclobutanecarboxylic acid] the IC50 ([1]; Homo sapiens, HeLa) was 4730 nM and the IC50 [2] was 0.93 nM.
`CC1(C)[C@@H](C(=O)O)CC[C@]1(C)c1nc(-c2ccc(C(=O)Nc3cc(C(F)(F)F)ccn3)cc2)c2c(N)nccn12` [Example 147, (1S,3S)-3-[8-amino-1-(4-{[4-(trifluoromethyl)pyridin-2-yl]carbamoyl}phenyl)imidazo[1,5-a]pyrazin-3-yl]-2,2,3-trimethylcyclopentane carboxylic acid] was tested, and the IC50 ([1]; Homo sapiens, HeLa) was 10000 nM and the IC50 [2] was 7 nM.
In the case of `Nc1nccn2c([C@@H]3CCN[C@H](C(=O)O)C3)nc(-c3ccc(C(=O)Nc4cc(C(F)(F)F)ccn4)cc3)c12` [Example 32, (2S,4R)-4-[8-amino-1-(4-{[4-(trifluoromethyl)pyridin-2-yl]carbamoyl}phenyl)imidazo[1,5-a]pyrazin-3-yl]piperidine-2-carboxylic acid], the IC50 ([1]; Homo sapiens, HeLa) is reported as 5910 nM and the IC50 [2] is reported as 2.2 nM.
`CC(C)[C@]1(C(=O)O)CC[C@H](c2nc(-c3ccc(C(=O)Nc4cc(C(F)(F)F)ccn4)cc3Cl)c3c(N)nccn23)C1` [Example 92, (1S,3S)-3-[8-amino-1-(2-chloro-4-{[4-(trifluoromethyl)pyridin-2-yl]carbamoyl}phenyl)imidazo[1,5-a]pyrazin-3-yl]-1-(1-methylethyl) cyclopentane-carboxylic acid] showed an IC50 ([1]; Homo sapiens, HeLa) of 3240 nM and an IC50 [2] of 0.51 nM.
`C[C@]1(C(=O)O)CC[C@H](N2CCO[C@@H](c3nc(-c4ccc(C(=O)Nc5cc(C(F)F)ccn5)cc4)c4c(N)ncc(Cl)n34)C2)CC1` (stereo in doubt) [Example 196, trans-4-{(2R)-2-[8-amino-5-chloro-1-(4-{[4-(difluoromethyl)pyridin-2-yl]carbamoyl}phenyl)imidazo [1,5-a]pyrazin-3-yl]morpholin-4-yl}-1-methylcyclohexanecarboxylic acid] showed an IC50 [1] of 4440 nM and an IC50 [2] of 7.5 nM.
For `CCOc1cc(C(=O)Nc2cc(C(F)(F)F)ccn2)cc(F)c1-c1nc([C@@H]2CC[C@](C)(C(=O)O)C2(C)C)n2c(F)cnc(N)c12` [Example 118, (1S,3R)-3-[8-amino-1-(2-ethoxy-6-fluoro-4-{[4-(trifluoromethyl)pyridin-2-yl]carbamoyl}phenyl)-5-fluoroimidazo[1,5-a]pyrazin-3-yl]-1,2,2-trimethylcyclopentane carboxylic acid], the IC50 ([1]; Homo sapiens, HeLa) was 10000 nM and the IC50 [2] was 1.3 nM.
With `CCOc1cc(C(=O)Nc2cc(C(F)(F)F)ccn2)ccc1-c1nc([C@H]2CC[C@@](C)(C(=O)O)C2(C)C)n2ccnc(N)c12` [Example 72, (1R,3S)-3-[8-amino-1-(2-ethoxy-4-{[4-(trifluoromethyl)pyridin-2-yl]carbamoyl}phenyl)imidazo[1,5-a]pyrazin-3-yl]-1,2,2-trimethylcyclopentane carboxylic acid] the IC50 ([1]; Homo sapiens, HeLa) was 3200 nM and the IC50 [2] was 0.61 nM.
Compound `Nc1nccn2c([C@H]3CC[C@@H](C(=O)N4CC[C@@H](C(=O)O)C4)C3)nc(-c3ccc(C(=O)Nc4cc(C(F)(F)F)ccn4)cc3)c12` [Example 19, (3R)-1-({(1R,3S)-3-[8-amino-1-(4-{[4-(trifluoromethyl)pyridin-2-yl]carbamoyl}phenyl)imidazo[1,5-a]pyrazin-3-yl]cyclopentyl}carbonyl)pyrrolidine-3-carboxylic acid] has an IC50 ([1]; Homo sapiens, HeLa) of 2870 nM and an IC50 [2] of 0.62 nM.
In the case of `Nc1nccn2c(C34CCC(C(=O)O)(CC3)C4)nc(-c3ccc(C(=O)Nc4cc(C(F)(F)F)ccn4)cc3)c12` [Example 65, 4-[8-amino-1-(4-{[4-(trifluoromethyl)pyridin-2-yl]carbamoyl}phenyl)imidazo[1,5-a]pyrazin-3-yl]bicyclo[2.2.1] heptane-1-carboxylic acid], the IC50 ([1]; Homo sapiens, HeLa) is reported as 6060 nM and the IC50 [2] is reported as 0.6 nM.
